Each structure is given as a SMILES string. The source made the active and inactive calls. No stated cut-off is given here; in the data, actives have a measured IC50 and inactives only a lower limit.

The IC50 is the concentration at which inhibition is half-maximal.

Sequence of Envelope glycoprotein gp160 (Q6QLK5 whole entry, the tested form may be a part): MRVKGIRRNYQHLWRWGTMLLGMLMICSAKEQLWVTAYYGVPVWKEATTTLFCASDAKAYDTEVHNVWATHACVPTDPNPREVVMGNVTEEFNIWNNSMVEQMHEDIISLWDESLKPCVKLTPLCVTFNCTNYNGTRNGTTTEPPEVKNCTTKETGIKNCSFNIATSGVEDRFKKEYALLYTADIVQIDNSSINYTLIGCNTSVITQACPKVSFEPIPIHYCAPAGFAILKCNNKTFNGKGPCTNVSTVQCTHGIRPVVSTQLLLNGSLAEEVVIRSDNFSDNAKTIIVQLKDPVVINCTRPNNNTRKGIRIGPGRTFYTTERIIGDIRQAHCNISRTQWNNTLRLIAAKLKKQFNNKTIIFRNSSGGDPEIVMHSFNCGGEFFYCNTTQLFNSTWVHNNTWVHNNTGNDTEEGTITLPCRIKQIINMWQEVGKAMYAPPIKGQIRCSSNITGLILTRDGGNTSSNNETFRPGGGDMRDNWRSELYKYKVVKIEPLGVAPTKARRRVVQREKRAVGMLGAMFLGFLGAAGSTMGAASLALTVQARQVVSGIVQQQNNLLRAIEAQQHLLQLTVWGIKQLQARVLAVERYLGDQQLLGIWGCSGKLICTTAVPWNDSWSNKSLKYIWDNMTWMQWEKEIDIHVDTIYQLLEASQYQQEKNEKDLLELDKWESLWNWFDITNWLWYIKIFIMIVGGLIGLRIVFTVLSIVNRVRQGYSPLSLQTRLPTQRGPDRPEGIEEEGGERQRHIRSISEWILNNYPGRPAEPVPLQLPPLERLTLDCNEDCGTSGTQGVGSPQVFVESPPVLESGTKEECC

The assay concerns the target Envelope glycoprotein gp160 (Human immunodeficiency virus 1, UniProt Q6QLK5). The assay can be described thus: cell-free HIV fusion peptide-binding blockers – biochemical, uHTS, fluorescence dequenching, […] (AID 1986).
`CC(/C=C1\SC(=S)N(C(C(=O)O)c2ccccc2)C1=O)=C\c1ccccc1` (centres undefined): the IC50 is 46 µM (active).
On to `O=C(N/N=C/c1cc(Br)c(O)c(Br)c1)c1cc2c(ccc3ccccc32)o1`, for which the IC50 was 15 µM (active).
The result for `COc1ccc(C(=O)Oc2ccc(/C=N/Nc3ccc(Cl)c(C(=O)O)c3)cc2OC)cc1` reads 19.3 µM (active).
The result for `COc1cc(C(=O)Nc2scc(-c3ccc(Br)cc3)c2C(=O)O)cc(OC)c1OC` reads 33.2 µM (active).
